Assay results published in patent US20130210907A1, “METHOD FOR PREVENTING OR TREATING ENTEROCHROMAFFIN CELL HYPERPLASIA-RELATED DISEASES BY QUERCETIN ADMINISTRATION” (HONG KONG BAPTIST UNIVERSITY, priority 2012, published 2013).

Tests used:
normal rats = experiment: Pain threshold pressure in normal rats; assay type: in vivo, rat; settings: 10 mg/kg i.g., 14 days
Description: AWR test is performed as previously described in Al-Chaer E D, Kawasaki M, Pasricha P J. A new model of chronic visceral hypersensitivity in adult rats induced by colon irritation during postnatal development. Gastroenterology. 2000 November; 119(5):1276-85. Briefly, rats are lightly anesthetized with ether; a latex balloon is inserted into the descending colon. Rats are then allowed to recover for about 1 h. The tube of the balloon is connected via a Y-connector to a sphygmomanometer and colorectal distension is applied in increments of 5 mmHg until a visible contraction of the abdominal wall is observed by an investigator blinded to the treatment. […] The pain threshold pressure of all groups is recorded and repeated five times with intervals of at least 5 minutes for recovery. […] The changes of area under the curve (AUC) are calculated using that during 20 s distension period over the 20 s baseline.
To identify whether the effects of Quercerin in PI-IBS rats are specific, pain threshold pressure, colonic EC cell number and 5-HT content are further evaluated in normal rats treated with Quercetin. […] After the final drug administration, pain threshold pressure, colonic EC cell density and 5-HT content are evaluated and the methods used here are as same as that shown in above experiments.

humans = settings: 1000 mg/kg/day orally for several months; cited from earlier work

O=c1c(O)c(-c2ccc(O)c(O)c2)oc2cc(O)cc(O)c12 [Quercetin, 2-(3,4-dihydroxyphenyl)-3,5,7-trihydroxy-4H-chromen-4-one]
Pain threshold pressure (normal rats): 37.9 ± 1.7 mmHg
Toxicity on oral administration to humans (humans): no toxicity
